Values joined by “and” are separate entries in the source; they are usually repeats but may differ in a detail not shown here. Identical values can stand only once.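 Five concentrations, 48 hours, 96-well plates. At the GI50, growth is halved. TGI marks complete inhibition of growth.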
Assays:
Experiment in all cases: DTP human tumour cell line panel, 48 h
NCI-H522 lung = system: NCI-H522 lung
COLO 205 colon = system: COLO 205 colon
OVCAR-3 ovarian = system: OVCAR-3 ovarian
SF-268 CNS = system: SF-268 CNS
NCI-H226 lung = system: NCI-H226 lung
OVCAR-5 ovarian = system: OVCAR-5 ovarian
NCI/ADR-RES ovarian = system: NCI/ADR-RES ovarian
HCC-2998 colon = system: HCC-2998 colon
SF-295 CNS = system: SF-295 CNS
LOX IMVI melanoma = system: LOX IMVI melanoma

| SMILES | GI50 (NCI-H522 lung) | TGI (NCI-H522 lung) | GI50 (COLO 205 colon) | TGI (COLO 205 colon) | GI50 (OVCAR-3 ovarian) | TGI (OVCAR-3 ovarian) | GI50 (SF-268 CNS) | TGI (SF-268 CNS) | GI50 (NCI-H226 lung) | TGI (NCI-H226 lung) | GI50 (OVCAR-5 ovarian) | TGI (OVCAR-5 ovarian) | GI50 (NCI/ADR-RES ovarian) | TGI (NCI/ADR-RES ovarian) | GI50 (HCC-2998 colon) | TGI (HCC-2998 colon) | GI50 (SF-295 CNS) | TGI (SF-295 CNS) | GI50 (LOX IMVI melanoma) | TGI (LOX IMVI melanoma) |
| --- | --- | --- | --- | --- | --- | --- | --- | --- | --- | --- | --- | --- | --- | --- | --- | --- | --- | --- | --- | --- |
| O=C(NCCN1CCOCC1)OCc1nc2nc(Cl)nc(N3CCOCC3)c2[nH]1 | 1.11 µM | > 100 µM | > 100 µM | > 100 µM | 1.15 µM | 7.18 µM | 3.02 µM | > 100 µM | 3.14 µM | > 100 µM | 4.42 µM | > 100 µM | 0.566 µM | > 100 µM | 3.77 µM | > 100 µM | 5.77 µM | > 100 µM | 0.382 µM | > 100 µM |
| COc1ccc2c(c1)/C(=C\c1ccncc1)C(=O)N2 | 4 µM | 9.18 µM | 11.9 µM | 44.7 µM | 10.4 µM | 27.5 µM | 5.07 µM | 37.3 µM |  |  | 23 µM | 49.2 µM | 12.3 µM | 67.1 µM | 19 µM | > 100 µM | 15.7 µM | 72.8 µM | 2.26 µM | 5.82 µM |
| COc1ccc2c(c1)nc(NNC(=O)c1cnccn1)c1cccn12 | 0.393 µM | 5.37 µM | 0.264 µM | 3.01 µM | 0.186 µM | 3.82 µM | 0.138 µM | 6.67 µM | 0.321 µM | 2.72 µM | 0.962 µM | 5.11 µM | 0.25 µM | 3.26 µM | 1.05 µM | 2.43 µM | 0.175 µM | 1.76 µM | 0.0837 µM | 1.57 µM |
| O=C1NC(N/N=C\C(O)C(O)C(O)C(O)CO)=N/C1=C/c1ccccc1 (configuration not stated) | 96.5 µM and 18.6 µM and > 100 µM | > 100 µM and 40.5 µM | > 100 µM and 19.3 µM | > 100 µM and 41.6 µM | 97.1 µM and 20.5 µM and > 100 µM | > 100 µM and 37.7 µM | > 100 µM and 15.2 µM | > 100 µM and 42.7 µM | > 100 µM and 19.5 µM | > 100 µM and 40.8 µM | > 100 µM and 24.4 µM | > 100 µM and 44.9 µM |  | > 100 µM | > 100 µM and 13.5 µM | > 100 µM and 41.7 µM | 84.1 µM and 16.2 µM and > 100 µM | > 100 µM and 38.2 µM | > 100 µM and 17.7 µM | > 100 µM and 36.4 µM |
| COc1ccc2c(c1)[n+](=O)c(C(=O)c1cccs1)c(C(F)(F)F)n2[O-] | 2 µM | 12.8 µM | 7.49 µM | > 50 µM | 2.09 µM | 11.3 µM | 3.94 µM | 27.4 µM | 9.58 µM | > 50 µM | 4.81 µM | > 50 µM | 4.99 µM | > 50 µM | 4.72 µM | 22.7 µM | 2.89 µM | 16.5 µM | 2.09 µM | 12.7 µM |
| Oc1c(C(Nc2ccccc2Br)c2ccccc2)ccc2cccnc12 (configuration not stated) | 2.39 µM | 16.6 µM | 2.75 µM | 36.6 µM | 5.37 µM | 23.9 µM | 1.7 µM | 17.3 µM |  |  | 5.34 µM | 51.7 µM | 1.44 µM | 24.5 µM | 2.19 µM | 97.9 µM | 1.65 µM | 47.3 µM | 1.91 µM | 13.6 µM |
| COc1ccccc1/C=C1\COc2ccc(-c3ccccc3)cc2C1=O | 3.1 µM | > 100 µM | 3.57 µM | 13 µM | 2.58 µM | 5.48 µM | 3.14 µM | 10.4 µM | 4.02 µM | 17.7 µM | 5.29 µM | 21.1 µM | 3.66 µM | 23.6 µM | 2.63 µM | 6.92 µM | 4 µM | 85.4 µM | 2.97 µM | 10.7 µM |
| OC1(c2ccccc2)C2CC=CC2C1(c1ccccc1)c1ccccc1 (configuration not stated) |  | 32.7 µM |  | 44.6 µM |  | > 100 µM |  | > 100 µM |  |  |  | > 100 µM |  | > 100 µM |  | 48.3 µM |  | > 100 µM |  | 37.9 µM |
| CN1C(=O)c2ccc3ccccc3c2C1=O |  | > 100 µM |  | > 100 µM |  | > 100 µM |  | > 100 µM |  | > 100 µM |  | > 100 µM |  | > 100 µM |  | > 100 µM |  | > 100 µM |  |  |
| O=[N+]([O-])c1cccc(/C=N/NC2=CS(=O)(=O)C=C2)c1 |  | > 100 µM |  | > 100 µM |  | > 100 µM |  | > 100 µM |  | > 100 µM |  | > 100 µM |  | > 100 µM |  |  |  | > 100 µM |  | > 100 µM |
| C#C[C@]1(O)CC[C@H]2[C@@H]3CC=C4c5sc(Nc6cc(F)ccc6F)nc5CC[C@]4(C)[C@H]3CC[C@@]21C | 2.08 µM | 5.6 µM | 2.05 µM | 4.81 µM | 1.62 µM | 3.16 µM | 1.53 µM | 3.37 µM |  |  | 1.93 µM | 5.18 µM | 2.79 µM | 13.8 µM | 1.65 µM | 3.19 µM | 0.224 µM | 0.592 µM | 1.49 µM | 2.87 µM |
| CCCCC(SC(=S)N1CCCC1)C(=O)Nc1nc(CC(=O)OCC)cs1 (configuration not stated) | 6.87 µM | > 100 µM |  |  | 9.52 µM | > 100 µM | 37.5 µM | > 100 µM | 71 µM | > 100 µM | 37.2 µM | > 100 µM | 37.6 µM | > 100 µM | 99.5 µM | > 100 µM | 47.3 µM | > 100 µM | 36.1 µM | > 100 µM |
| O=C(Oc1cccc(Cl)c1)c1ccccc1Nc1ccnc(C(F)(F)F)c1 | 4.21 µM | 41.1 µM |  |  | 3.8 µM | 18.1 µM | 3.03 µM | 10.8 µM | 2.15 µM | 8.89 µM | 13.8 µM | 57 µM | 2.24 µM | 6.1 µM | 3.46 µM | 6.66 µM | 18.3 µM | 45.5 µM |  |  |
| CC1=CC2C(C(O)CC3(C)C2CC(C)C32OCOC23COCO3)C2(C)C/C(=C/O)C(=O)C=C12 (configuration not stated) | 1.79 µM | 3.47 µM | 1.97 µM | 3.47 µM | 2.05 µM | 3.59 µM | 2.03 µM | 3.84 µM |  |  | 1.98 µM | 3.92 µM | 2.28 µM | 4.8 µM | 1.91 µM | 3.38 µM | 2.22 µM | 5.34 µM | 1.75 µM | 3.31 µM |

Reference: PubChem BioAssay (NCI)
